In DBAASP:
≈ marks a conversion by molar mass, not a printed value. Where “and” joins values, the source holds several entries; their conditions need not be identical. Identical values can stand only once.

Key:
Experiment in all cases: ≥ marks a high value that may be exact or a test limit, other limits are often not marked, values filed in µg/mL are converted to µM
[1] = tested on: Acinetobacter baumannii ATCC 15308
Citrobacter sp. = tested on: Citrobacter sp.
Enterobacter cloacae = tested on: Enterobacter cloacae
[2] = tested on: Escherichia coli ATCC 25922
Klebsiella pneumoniae = tested on: Klebsiella pneumoniae
[3] = tested on: Pseudomonas aeruginosa ATCC 15442
[4] = tested on: Staphylococcus aureus ATCC 25923
Staphylococcus aureus = tested on: Staphylococcus aureus
Streptococcus pneumoniae = tested on: Streptococcus pneumoniae
[5] = tested on: Bacillus subtilis ATCC 6633
[6] = tested on: Candida albicans ATCC 10231
[7] = tested on: Candida parapsilosis ATCC 22019
Cryptococcus neoformans = tested on: Cryptococcus neoformans
[8] = tested on: Escherichia coli ATCC 9637
[9] = tested on: Klebsiella pneumoniae ATCC 27736
[10] = tested on: Pseudomonas aeruginosa ATCC BAA-427
[11] = tested on: Staphylococcus aureus ATCC 29213
[12] = tested on: Staphylococcus aureus ATCC 33592
[13] = tested on: Staphylococcus aureus ATCC 700698
[14] = tested on: Staphylococcus aureus ATCC 700699
[15] = tested on: Staphylococcus aureus ATCC BAA-44
[16] = tested on: Escherichia coli KpC+001812446
[17] = tested on: Klebsiella pneumoniae ATCC 13883
[18] = tested on: Klebsiella pneumoniae KpC+001825971
Escherichia coli C600 = tested on: Escherichia coli C600
[19] = tested on: Pseudomonas aeruginosa PAO1
[20] = tested on: Staphylococcus aureus 209P

MIC [1] [µM]	MIC (Citrobacter sp.) [µM]	MIC (Enterobacter cloacae) [µM]	MIC [2] [µM]	MIC (Klebsiella pneumoniae) [µM]	MIC [3] [µM]	MIC [4]	MIC (Staphylococcus aureus) [µM]	MIC (Streptococcus pneumoniae) [µM]	Compound	further results
≥ 117	≥ 117	≥ 117	> 117	> 117	≥ 117	> 117 µM	> 117	≥ 117	CC[C@H](C)[C@H](NC(=O)[C@H](CCSC)NC(=O)[C@H](C)NC(=O)[C@@H]1CCCN1C(=O)[C@@H](NC(=O)[C@@H]1CCCN1C(=O)[C@H](CCCCN)NC(=O)[C@@H](NC(=O)[C@H](CC(C)C)NC(=O)CNC(=O)CNC(=O)[C@H](CC(C)C)NC(=O)[C@@H](N)Cc1ccccc1)[C@@H](C)CC)C(C)C)C(=O)N[C@H]1CSSC[C@@H](C(=O)O)NC(=O)[C@H](CCCCN)NC(=O)[C@H](CCCCN)NC(=O)[C@H](CCCN=C(N)N)NC(=O)[C@H](C(C)C)NC(=O)[C@H](C)NC1=O [FLGGLIKPVPAMICAVRKKC]	
13.5 (≈ 31.2 µg/mL)	≥ 108	≥ 108	3.38 (≈ 7.81 µg/mL)	> 108	13.5 (≈ 31.2 µg/mL)	3.38 µM (≈ 7.81 µg/mL)	3.38 (≈ 7.81 µg/mL)	3.38 (≈ 7.81 µg/mL)	CC[C@H](C)[C@H](NC(=O)[C@H](CC(C)C)NC(=O)CNC(=O)CNC(=O)[C@H](CC(C)C)NC(=O)[C@@H](N)Cc1ccccc1)C(=O)N[C@@H](CCCCN)C(=O)N[C@@H](Cc1c[nH]c2ccccc12)C(=O)N[C@@H](CCCCN)C(=O)N[C@@H](Cc1c[nH]c2ccccc12)C(=O)N1CCC[C@H]1C(=O)N[C@@H](Cc1c[nH]c2ccccc12)C(=O)N[C@@H](Cc1c[nH]c2ccccc12)C(=O)N1CCC[C@H]1C(=O)N[C@@H](Cc1c[nH]c2ccccc12)C(=O)N[C@@H](CCCN=C(N)N)C(=O)N[C@@H](CCCN=C(N)N)C(N)=O [FLGGLIKWKWPWWPWRR]	
			3.8 (≈ 6.23 µg/mL)			3.8 µM and 7.6 µM			CC[C@H](C)[C@H](NC(=O)[C@H](CCCN=C(N)N)NC(=O)CNC(=O)[C@H](CC(C)C)NC(=O)[C@H](Cc1ccccc1)NC(=O)[C@H](CCCCN)NC(=O)[C@H](CO)NC(=O)[C@H](Cc1ccccc1)NC(=O)[C@H](Cc1c[nH]c2ccccc12)NC(=O)[C@H](CCCCN)NC(=O)[C@@H](NC(=O)[C@@H](N)Cc1ccccc1)C(C)C)C(=O)N[C@@H](CC(C)C)C(N)=O [FVKWFSKFLGRIL]	MIC [5]: 7.6 µM (≈ 12.5 µg/mL); MIC [6]: 6 µM (≈ 9.84 µg/mL); MIC [7]: 6 µM (≈ 9.84 µg/mL); MIC (Cryptococcus neoformans): 3 µM (≈ 4.92 µg/mL); MIC [8]: 6.25 µM (≈ 10.3 µg/mL); MIC [9]: 7.6 µM (≈ 12.5 µg/mL); MIC [10]: 6.8 µM (≈ 11.2 µg/mL); MIC [11]: 2 µM (≈ 3.28 µg/mL); MIC [12]: 2 µM (≈ 3.28 µg/mL); MIC [13]: 2 µM (≈ 3.28 µg/mL); MIC [14]: 2 µM (≈ 3.28 µg/mL); MIC [15]: 2 µM (≈ 3.28 µg/mL)
			4 (≈ 8.09 µg/mL)						CC[C@H](C)[C@H](NC(=O)[C@H](CCCCN)NC(=O)[C@H](CCCCN)NC(=O)[C@H](Cc1ccccc1)NC(=O)[C@H](CC(C)C)NC(=O)[C@H](CCCCN)NC(=O)[C@H](Cc1c[nH]c2ccccc12)NC(=O)[C@H](CCCCN)NC(=O)[C@H](Cc1cnc[nH]1)NC(=O)CNC(=O)CN)C(=O)NCC(=O)N[C@@H](C)C(=O)N[C@H](C(=O)N[C@@H](CC(C)C)C(=O)N[C@@H](CCCCN)C(=O)N[C@H](C(=O)N[C@@H](CC(C)C)C(=O)O)C(C)C)C(C)C [GGHKWKLFKKIGAVLKVL]	MIC [16]: 8 µM (≈ 16.2 µg/mL); MIC [17]: ≥ 32 µM; MIC [18]: 8 µM (≈ 16.2 µg/mL)
									CC(C)[C@@H]1NC(=O)CNC(=O)[C@H](CCCN=C(N)N)NC(=O)[C@H](C(C)C)NC(=O)[C@H](CCCN=C(N)N)NC(=O)[C@H](C)NC(=O)[C@H](CCCN=C(N)N)NC(=O)[C@H](C(C)C)NC(=O)[C@@H](NC(=O)[C@H](Cc2c[nH]c3ccccc23)NC(=O)[C@@H](N)CCCN=C(N)N)CSSC[C@@H](C(=O)N[C@@H](Cc2c[nH]c3ccccc23)C(=O)O)NC(=O)[C@H](CCCN=C(N)N)NC(=O)[C@H](CCCN=C(N)N)NC(=O)[C@H](Cc2ccc(O)cc2)NC(=O)[C@H](CCCN=C(N)N)NC1=O [RWCVRARVRGVRYRRCW]	MIC (Escherichia coli C600): 1.56 µM (≈ 3.55 µg/mL); MIC [19]: 12.5 µM (≈ 28.5 µg/mL); MIC [20]: 1.56 µM (≈ 3.55 µg/mL)
